According to ChEMBL document CHEMBL1201862, “PubChem BioAssay data set” (2004):
Where “and” joins values, the source holds several entries; their conditions need not be identical. Identical values can stand only once.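 Tested at 5 concentrations; 48 h exposure; 96-well plates; endpoints linearly interpolated, else capped at highest concentration. Here, GI50 denotes the concentration required for 50% inhibition of growth.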 Calls of active or inactive are those of the source. Cut-off read from the data, not from the text of the source: active = GI50 up to about 1.1 µM and inactive = higher.

What was measured:
Experiment in all cases: DTP human tumour cell line panel, 48 h
[1] = tested on: SK-OV-3
[2] = tested on: SK-MEL-28
[3] = tested on: 786-0
[4] = tested on: MCF7
[5] = tested on: HCT-15
[6] = tested on: RPMI-8226
[7] = tested on: COLO 205
[8] = tested on: SF-268
[9] = tested on: DU-145
[10] = tested on: MDA-N
[11] = tested on: TK-10
[12] = tested on: PC-3
[13] = tested on: UO-31
[14] = tested on: Hs-578T
[15] = tested on: LOX IMVI
[16] = tested on: OVCAR-4
[17] = tested on: SNB-19
[18] = tested on: T47D
[19] = tested on: NCI/ADR-RES
[20] = tested on: A498

Measured: GI50

CC(=O)OC1[C@H](OC(C)=O)C2=C(C)[C@@H](OC(C)=O)C[C@@]2(C(C)(C)O)[C@@H](OC(C)=O)[C@H]2[C@@]1(C)[C@@H](OC(C)=O)CC(OC(C)=O)[C@]21CO1 (some centres undefined)
inactive: [1] > 100 µM | [2] > 100 µM | [3] > 100 µM | [4] > 100 µM | [6] > 100 µM | [7] > 100 µM | [8] > 100 µM | [9] > 100 µM | [10] > 100 µM | [11] > 100 µM | [12] > 100 µM | [13] > 100 µM | [14] > 100 µM | [15] > 100 µM | [16] > 100 µM | [17] > 100 µM | [18] > 100 µM
> 100 µM: [5]

CC(C)COP(=O)(OCC(C)C)C(NS(=O)(=O)c1ccccc1)(C(F)(F)F)C(F)(F)F
3.94 µM: [5]
inactive: [1] 5.47 µM | [2] 13.6 µM | [3] 7.53 µM | [4] 7.57 µM | [6] 1.66 µM | [7] 1.94 µM | [8] 7.21 µM | [9] 5.71 µM | [10] 5.51 µM | [11] 3.68 µM | [12] 3.68 µM | [13] 2.22 µM | [14] 9.33 µM | [15] 3.57 µM | [16] 3.4 µM | [17] 10.2 µM | [18] 3.38 µM | [19] 4.13 µM

c1ccc(/N=c2/sc3ccccc3s/c2=N/c2ccccc2)cc1
inactive: [1] 2.81 µM | [2] 1.81 µM | [3] 1.74 µM | [6] 4.57 µM | [7] 1.92 µM | [8] 3.12 µM | [9] 5.02 µM | [10] 1.61 µM | [20] 2.33 µM | [11] 4.08 µM | [12] 12.8 µM | [13] 1.58 µM | [14] 2.68 µM | [15] 1.7 µM | [16] 2.02 µM | [17] 4.71 µM | [18] 1.65 µM | [19] 2.67 µM
1.75 µM: [5]

CC(=O)OCC1OC(SC2=NC(=O)CS2)C(OC(C)=O)C(OC(C)=O)C1OC(C)=O (centres undefined)
inactive: [1] > 100 µM | [2] > 100 µM | [3] > 100 µM | [4] 71.4 µM | [6] 51.8 µM and 27.4 µM | [8] > 100 µM | [9] > 100 µM | [10] > 100 µM | [20] > 100 µM | [11] 53.7 µM | [12] 84.1 µM and 95.5 µM | [13] > 100 µM | [14] > 100 µM | [15] > 100 µM | [17] > 100 µM | [18] > 100 µM | [19] > 100 µM

CC1(C)O[C@@H](CO)[C@H]([C@@]23OC[C@H]4OC(C)(C)OC4[C@@H]2OC(C)(C)O3)O1 (some centres undefined)
> 100 µM: [5]
inactive: [1] > 100 µM | [2] > 100 µM | [3] > 100 µM | [4] > 100 µM | [6] > 100 µM | [7] > 100 µM | [8] > 100 µM | [9] > 100 µM | [10] > 100 µM | [12] > 100 µM | [13] > 100 µM | [14] > 100 µM | [15] > 100 µM | [16] > 100 µM | [17] > 100 µM | [18] > 100 µM | [19] > 100 µM

COC(CNC(=O)C(C)NC(=O)/C=C/c1ccccc1)OC (centres undefined)
inactive: [1] > 100 µM | [3] > 100 µM | [4] > 100 µM | [6] > 100 µM | [7] > 100 µM | [8] > 100 µM | [9] > 100 µM | [10] > 100 µM | [11] > 100 µM | [12] > 100 µM | [13] > 100 µM | [14] > 100 µM | [17] > 100 µM | [18] > 100 µM | [19] > 100 µM
> 100 µM: [5]

Cc1ccc(/N=N/C(=N/NC(=O)c2cc(Cl)ccc2O)c2ccc(N(CCC#N)CCC#N)cc2C)cc1
inactive: [1] 32.9 µM | [3] 28.1 µM | [4] 24.7 µM | [6] 8.36 µM | [7] 12.4 µM | [8] 25.1 µM | [9] 26.9 µM | [10] 30.6 µM | [20] 12.1 µM | [11] 21.2 µM | [12] 24.3 µM | [13] 24.8 µM | [14] 9.95 µM | [16] 23.8 µM | [17] 25.5 µM | [18] 7.29 µM | [19] 38.4 µM
32.1 µM: [5]

CNC(=O)C1CCCN1C(=O)C(Cc1c[nH]cn1)NC(=O)C1CCC(=O)N1 (centres undefined)
> 100 µM: [5]
inactive: [1] > 100 µM | [2] > 100 µM | [3] 85.5 µM | [4] > 100 µM | [6] > 100 µM | [7] > 100 µM | [8] > 100 µM | [9] > 100 µM | [10] > 100 µM | [11] > 100 µM | [12] > 100 µM | [13] > 100 µM | [14] > 100 µM | [15] > 100 µM | [16] > 100 µM | [17] > 100 µM | [18] > 100 µM | [19] > 100 µM

COc1ccc2nc(-c3cccc(N(C)C)c3)cc(O)c2c1
inactive: [11] 4.74 µM | [16] 5.64 µM | [18] > 10 µM
active: [1] 0.327 µM | [2] 0.419 µM | [3] 0.408 µM | [4] 0.413 µM | [6] 0.318 µM | [7] 0.198 µM | [8] 0.378 µM | [9] 0.384 µM | [10] 0.0608 µM | [12] 0.362 µM | [13] 0.782 µM | [14] 0.188 µM | [15] 0.334 µM | [17] 0.451 µM | [19] 0.185 µM
0.317 µM: [5]

CC1=NC(=Cc2cc(Br)cc(Br)c2)C(=O)N1n1c(-c2ccccc2)nc2ccccc2c1=O
> 100 µM: [5]
inactive: [1] > 100 µM | [2] > 100 µM | [3] > 100 µM | [4] > 100 µM | [6] > 100 µM | [7] > 100 µM | [8] > 100 µM | [9] > 100 µM | [10] > 100 µM | [11] > 100 µM | [12] > 100 µM | [13] > 100 µM | [14] > 100 µM | [15] > 100 µM | [16] > 100 µM | [17] > 100 µM | [18] > 100 µM | [19] > 100 µM

CCN(CC)Cc1nc(C2CCC([N+](=O)[O-])O2)no1 (centres undefined)
inactive: [1] > 100 µM | [2] 20.3 µM | [3] 40 µM | [4] 15.6 µM | [6] 31.3 µM | [7] 16.6 µM | [8] 24.5 µM | [9] 25.7 µM | [10] 17.4 µM | [11] > 100 µM | [12] 27.3 µM | [13] > 100 µM | [14] 31.6 µM | [15] 31.4 µM | [16] 77.3 µM | [17] 28.6 µM | [18] 27.2 µM | [19] 26.7 µM
19.4 µM: [5]

O=C1/C(=C\c2cccc(Oc3ccccc3)c2)S(=O)(=O)C(c2ccccc2)N1Cc1ccccc1 (centres undefined)
inactive: [1] > 100 µM | [2] 29.8 µM | [3] 19.6 µM | [4] 39.1 µM | [7] 27 µM | [9] 33 µM | [10] 29.6 µM | [20] 19.3 µM | [11] 33.6 µM | [12] 24.7 µM | [13] 18.7 µM | [14] 13.6 µM | [15] 25.1 µM | [17] 21.4 µM | [18] 32.8 µM | [19] 19.4 µM
15.6 µM: [5]

O=C(NN=C1CCCCC1)Nc1ccccc1Cl
39.6 µM: [5]
inactive: [1] 55.6 µM | [2] 79.3 µM | [3] > 100 µM | [4] 34.2 µM | [6] 45.9 µM | [7] 31.3 µM | [8] 41.1 µM | [9] 86.1 µM | [10] 18.1 µM | [11] > 100 µM | [12] > 100 µM | [13] 61.9 µM | [14] 32 µM | [15] 53.7 µM | [16] > 100 µM | [17] 64.3 µM | [18] 29.5 µM | [19] 24.1 µM

O=C(O)c1cccc(S(=O)(=O)NN2C(=O)CSC2c2ccccc2)c1 (centres undefined)
> 100 µM: [5]
inactive: [1] > 100 µM | [2] > 100 µM | [3] > 100 µM | [4] > 100 µM | [6] 35.3 µM | [7] > 100 µM | [8] > 100 µM | [9] > 100 µM | [10] 74.6 µM | [20] > 100 µM | [11] > 100 µM | [12] > 100 µM | [13] > 100 µM | [14] > 100 µM | [15] > 100 µM | [17] > 100 µM | [18] > 100 µM

O=C1c2c(Cl)c(Cl)c(Cl)c(Cl)c2C(=O)N1CCN(c1c(Cl)ssc1=O)c1c(Cl)ssc1=O
inactive: [1] > 100 µM | [2] 58.3 µM | [3] 18.2 µM | [4] 19.6 µM | [7] 18.2 µM | [8] 71.9 µM | [9] 19 µM | [10] 18.5 µM | [20] > 100 µM | [11] 18.7 µM | [12] 22.9 µM | [13] 18.2 µM | [14] > 100 µM | [15] 21.9 µM | [16] 18.2 µM | [17] > 100 µM | [18] 17.1 µM | [19] 49.3 µM
19.5 µM: [5]
